Results as given in article PMC9578396, “Intrinsic Antibacterial Activity of Xeruborbactam In Vitro: Assessing Spectrum and Mode of Action” (Antimicrobial Agents and Chemotherapy, 2022).
In brackets after ≈: the same amount, converted by molar mass. Where two headings read alike, the source gives them in different places.

Legend:
PBP1a = biological target: T1, PBP1a (Escherichia coli, UniProt P02918); parameters: method as in PMID 18250190; conditions: read-out: IC50, PBP1a; value in parentheses; E. coli MC1400; cited from earlier work
T1 construct: Five microliters of total bacterial membrane preparation was mixed with 5 μL of a test compound; endogenous in cells; host or cells: Escherichia coli ECM5497 (MG1655), total membrane preparation
T1 sequence (P02918 whole entry): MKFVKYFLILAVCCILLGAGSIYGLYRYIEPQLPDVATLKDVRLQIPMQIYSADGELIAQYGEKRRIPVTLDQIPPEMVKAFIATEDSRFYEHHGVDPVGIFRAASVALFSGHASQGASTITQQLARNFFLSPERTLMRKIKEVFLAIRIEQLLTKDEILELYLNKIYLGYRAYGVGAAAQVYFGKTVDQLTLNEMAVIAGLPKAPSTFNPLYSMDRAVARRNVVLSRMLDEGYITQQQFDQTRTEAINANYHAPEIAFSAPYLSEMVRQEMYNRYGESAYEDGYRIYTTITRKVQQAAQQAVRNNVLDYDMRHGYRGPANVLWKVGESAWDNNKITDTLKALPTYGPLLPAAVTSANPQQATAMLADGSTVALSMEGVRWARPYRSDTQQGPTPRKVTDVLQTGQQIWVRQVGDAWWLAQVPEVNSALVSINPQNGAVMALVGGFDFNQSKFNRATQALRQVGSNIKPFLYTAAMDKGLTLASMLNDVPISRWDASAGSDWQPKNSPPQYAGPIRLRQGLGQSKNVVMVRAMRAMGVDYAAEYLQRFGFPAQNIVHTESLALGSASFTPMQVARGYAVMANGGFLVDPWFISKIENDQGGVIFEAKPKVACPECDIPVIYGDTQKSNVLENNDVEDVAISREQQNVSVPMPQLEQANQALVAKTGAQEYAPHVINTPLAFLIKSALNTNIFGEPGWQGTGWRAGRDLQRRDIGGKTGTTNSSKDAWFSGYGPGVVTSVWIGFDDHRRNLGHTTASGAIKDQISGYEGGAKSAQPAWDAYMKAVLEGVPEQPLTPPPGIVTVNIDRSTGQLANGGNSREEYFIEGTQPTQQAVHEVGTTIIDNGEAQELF

[1] = test system: strain PAM1154 of P. aeruginosa; assay: Minimal bactericidal concentration (MBC), P. aeruginosa; format: cell-based; conditions: Pseudomonas aeruginosa
[2] = test system: K. pneumoniae strain KPM1026a
Procedure: Beta-lactamase-negative strains of E. coli (strain ECM5497), A. baumannii (strain AB1007), and K. pneumoniae (strain KPM1026a) were used in resistance development studies. […] Colonies were incubated for 24 h at 37°C before the frequency of resistance emergence was calculated as the ratio of the number of CFU grown on the xeruborbactam-containing plate over the number of CFU recorded for xeruborbactam-free plates. Single colonies from xeruborbactam-containing plates were grown twice on a nonselective medium before their antimicrobial-resistance levels were assessed. For K. pneumoniae KPM1026a, several independent cultures were used in resistance studies.

[3] = test system: strain ECM5497 of E. coli; assay: Minimal bactericidal concentration (MBC), E. coli; format: cell-based; conditions: Escherichia coli
Other Enterobacterales = assay: Broth microdilution MIC (CLSI), other Enterobacterales; format: cell-based; conditions: 18 isolates
Text: (§1) Bacterial isolates were subjected to broth microdilution susceptibility testing, performed according to Clinical and Laboratory Standards Institute (CLSI) methods ([46]), using panels prepared in-house. Meropenem was purchased from Sandoz, and all other antibiotics were from Sigma-Aldrich. Xeruborbactam was synthesized at Qpex Biopharma, San Diego, CA. Avibactam was purchased from eNovation Chemicals LLC, Bridgewater, NJ, USA; zidebactam was from MedKoo Biosciences, Inc., Morrisville, NC, and nacubactam was from Advanced ChemBlocks, Hayward, CA. Durlobactam was synthesized at Acme Bioscience, Palo Alto, CA, USA.

Serratia marcescens = assay: Broth microdilution MIC (CLSI), Serratia marcescens; format: cell-based; conditions: 10 isolates
Text: as §1

[4] = test system: P. aeruginosa strain PAM1154; assay: Fluorescence microscopy, cellular morphology; format: cell-based, Pseudomonas aeruginosa; conditions: treated at 1× or 2× MIC
Procedure: Single colonies of K. pneumoniae strain KPM1026a, A. baumannii strain ATCC 17978, and P. aeruginosa strain PAM1154 were picked from LB agar plates, inoculated in cation-adjusted Mueller-Hinton broth (CA-MHB), and incubated overnight at 30°C with rolling. Overnight cultures were diluted into fresh CA-MHB and incubated at 30°C, with rolling, until they reached an OD600 of ≈0.12 to 0.15 (equivalent to ~2 × 10^8 CFU/mL). Samples were then treated with compounds and incubated at 30°C, with rolling. After 1 or 2 h of treatment, cells were collected and stained with a dye mix containing FM4-64 (1 μg/mL), DAPI (4′,6-diamidino-2-phenylindole) (2 μg/mL), and SYTOX green (0.5 μM) (Molecular Probes, Invitrogen, or Thermo Fisher Scientific). Cells were transferred onto an agarose pad containing 1.2% agarose and 20% LB medium for microscopy. Microscopy was performed as previously described ([34]).

[5] = biological target: PBP1a/PBP1b, PBP2, and PBP3; assay: Bocillin FL competition PBP binding assay, summary for two species; conditions: PBP2, and PBP3 from E. coli and K. pneumoniae, read-out: IC50 range
Procedure: Ten milliliters of overnight bacterial culture was inoculated in 1 L of LB medium and grown to an OD600 of 0.7 to 0.9. The cell pellet was washed once with 50 mL of solution containing 100 mM Na-phosphate at pH 7.0 and 100 mM NaCl and resuspended in 10 mL of the same buffer with one tablet of EDTA-free mini-protease inhibitor and 10 mg of lysozyme. Cell suspensions were incubated for 45 min at 37°C, and then 200 μL of DNase I was added along with MgSO4 (to a final concentration of 10 mM), followed by three cycles of freeze-thawing (10 min and 20 min, respectively). Four cycles of sonication at maximum power were performed next, each cycle lasting for 30 s with 1 min on ice between cycles. The cell suspension was centrifuged at 12,000 × g for 10 min at 4°C. The supernatant was collected and centrifuged at 100,000 × g for 45 min at 4°C. The pellet was washed three times with 10 mL of 100 mM Na-phosphate, pH 7.0, by resuspension and subsequent centrifugation at 100,000 × g for 10 min at 4°C. The pellet was finally resuspended in 1.5 mL of 100 mM Na-phosphate, pH 7.0, and passed several times through a Dounce homogenizer (tight pestle). […]
Five microliters of total bacterial membrane preparation was mixed with 5 μL of a test compound at a desired concentration in 100 mM Na-phosphate buffer, pH 7.0. […] IC50 values were calculated with Prism software (GraphPad).

E. coli strain ECM5497 = conditions: xeruborbactam at ≥2× MIC, 48 h at 37°C
Procedure: (§2) Beta-lactamase-negative strains of E. coli (strain ECM5497), A. baumannii (strain AB1007), and K. pneumoniae (strain KPM1026a) were used in resistance development studies. […] […] Single colonies from xeruborbactam-containing plates were grown twice on a nonselective medium before their antimicrobial-resistance levels were assessed. For K. pneumoniae KPM1026a, several independent cultures were used in resistance studies.

[6] = test system: A. baumannii strain AB1007; conditions: xeruborbactam at ≥2× MIC, 48 h at 37°C
Procedure: as §2

Proteus mirabilis = assay: Broth microdilution MIC (CLSI), Proteus mirabilis; format: cell-based; conditions: 23 isolates
Text: as §1

Row | Structure (SMILES) | IC50 (PBP1a) | MBC [1] | frequency of resistance (FOR) ([2]; at 2× MIC) | frequency of resistance (FOR) ([2]; at 4× MIC) | MBC [3] | MIC50 (Other Enterobacterales) | MIC90 (Other Enterobacterales) | MIC range (Other Enterobacterales) | MIC50 (Serratia marcescens) | MIC90 (Serratia marcescens) | MIC range (Serratia marcescens) | cellular morphology [4] | IC50 [5] | frequency of resistance (FOR) (E. coli strain ECM5497) | frequency of resistance (FOR) [6] | MIC50 (Proteus mirabilis) | MIC90 (Proteus mirabilis)
1 | C[C@@H](O)[C@H]1C(=O)N2C(C(=O)O)=C(S[C@@H]3CN[C@H](C(=O)N(C)C)C3)[C@H](C)[C@H]12 [Meropenem] | 4.4 µM | – | – | – | – | – | – | – | – | – | – | – | – | – | – | – | –
2 | O=C(O)c1c(F)ccc2c1OB(O)[C@@H]1C[C@H]21 [Xeruborbactam] | – | 32 µg/mL (≈ 144 µM) | 2 × 10^−8 | < 3 × 10^−9 | 8 µg/mL (≈ 36 µM) | 16 µg/mL (≈ 72.1 µM) | 32 µg/mL (≈ 144 µM) | 8 to 64 µg/mL | 32 µg/mL (≈ 144 µM) | 32 µg/mL (≈ 144 µM) | 16 to 64 µg/mL | filamentation and bulge formation at midcell and eventual cell lysis from the midpoint | 40 to 70 µM | < 2 × 10^−9 | < 2 × 10^−9 | 16 µg/mL (≈ 72.1 µM) | 32 µg/mL (≈ 144 µM)
